The subject of one data set is iPSC-derived mDA neurons. The data set can be described thus: mDA neuron marker expression (NURR1, TH) as sign of acute toxicity. Particulars: treatment of mDA neurons. The class given is cell-based, human. As for the experimental part:
Cells were fixed in 4% paraformaldehyde for 15 minutes. Blocking was performed in phosphate-buffered saline supplemented with 1% BSA, and 0.3% Triton X-100 for 30 minutes to 1 hour. Cells were stained overnight at 4° C. with primary antibodies diluted in blocking buffer. Following several washes, cells were stained with appropriate Alexa Fluor-labeled secondary antibodies (Molecular Probes, Carlsbad, Calif.) at 1:500 in blocking buffer for 30 minutes to 3 hours at room temperature. Cells were counterstained with 4′,6-diamidino-2-phenylindole (DAPI; Thermo Fisher, Rockford, Ill.) to visualize nuclei. Images were acquired with an Olympus IX81 microscope using a Hamamatsu ORCA CCD camera.
Cells were collected with a cell lifter (Corning, Tewksbury, Mass.) in ice-cold phosphate-buffered saline without calcium or magnesium (PBS−/−). Cell pellets were rapidly frozen on ethanol and dry ice and stored at −80° C. Cell pellets were thawed on ice and resuspended in 50-200 μl RIPA lysis buffer (50 mM Tris-HCl pH 8.0, 120 mM NaCl, 6 mM EDTA, 0.5% NP-40) with 1% sodium dodecyl sulfate (SDS). Cell suspensions were vortexed at 15-minute intervals during a 45-minute incubation on ice. Lysates were isolated following a 10,000 rpm spin for 10 minutes at 4° C. 20-40 μg samples were further diluted with 4× Laemmli sample buffer, boiled for 5 minutes at 95° C., and loaded onto a NuPAGE 4-12% Bis-Tris precast gel (Life Technologies). Gel electrophoresis was performed at 100 V for 2 hours. Gels were transferred to a methanol activated PVDF membrane using the XCell II Blot Module (Life Technologies) according to the manufacturer's instructions. Blots were blocked in 3% bovine serum albumin (BSA) in Tris buffered saline plus 0.1% Tween-20 (TBS-T) for 45 minutes at room temperature. […]
Following several washes with TBS-T, blots were incubated in appropriate HRP-labeled secondary antibodies (Jackson ImmunoResearch, West Grove, Pa.) for 1 hour at room temperature. […] Densitometry quantification was performed using ImageJ on blots from three independent experiments.

The subject of data set [1] is proliferating cells in iPSC-derived mDA neuron cultures. The data set can be described thus: Mitomycin C treatment of iPSC-derived mDA neuron cultures. The class given is cell-based, human. Particulars: 1 day following the final day 30 replating. As for the experimental part:
One to two days after plating, cells were treated with 1 μg/ml mitomycin C (Tocris) for 1 hour to kill any remaining proliferating contaminants. iPSC-derived mDA neurons were fed every 2 to 3 days and maintained without passaging until the desired timepoint for a given experiment. PO, laminin and fibronectin were added to the medium every 7-10 days to prevent neurons from lifting off.

In data set [2] the test system is doxycycline (dox)-inducible fibroblast line. The data set can be described thus: Reversibility of progerin-induced nuclear changes in doxycycline-inducible fibroblast line. The format is cell-based. The conditions noted are these: following re-addition of doxycycline.
The subject of another data set is motor neurons (MNs). Particulars: after trophic factor withdrawal (Yang et al.); cited from earlier work.

The source of these data is patent US9963674B2, “Age-modified cells and methods for making age-modified cells” (Memorial Sloan-Kettering Cancer Center, priority 2013, dated 2018).

Molecules are shown by their SMILES. Where only a bound is given, the exact number is not on record here.

In the case of `N#CC(C#N)=NNc1cccc(Cl)c1` [CCCP, carbonyl cyanide 3-chlorophenylhydrazone, reference compound], the “mDA neuron marker expression after mitochondrial toxin” value in the data set with iPSC-derived mDA neurons is on record as “rapidly induces mDA neuron marker loss”. With `CO[C@@]12[C@H](COC(N)=O)C3=C(C(=O)C(C)=C(N)C3=O)N1C[C@@H]1N[C@@H]12` [Mitomycin C, mitomycin C], in data set [1], the post-mitotic neurons entry is listed as “unaffected” and the remaining proliferating cells result is on record as “helped to eliminate the remaining proliferating cells”. As to `C[C@H]1c2cccc(O)c2C(=O)C2=C(O)[C@]3(O)C(=O)C(C(N)=O)=C(O)[C@@H](N(C)C)[C@@H]3[C@@H](O)[C@@H]21` [doxycycline], the “time to reversal of progerin-induced changes in nuclear morphology” value in data set [2] is given as not above 10 days.

Regarding `O=C1Cc2c([nH]c3ccc(Br)cc23)-c2ccccc2N1` [kenpaullone], in the data set with motor neurons (MNs), the “survival of MNs” value was “impressive ability to prolong the healthy survival of MNs”.
